Article PMC9130233, “An inhibitor of RORγ for chronic pulmonary obstructive disease treatment” (Scientific Reports, 2022)
Read-outs that look alike come from different tables or passages of the source.

Key:
[1] = tested on: IL-17 from mouse BAL cells; experiment: Ex vivo IL-17 release, cultured BAL cells from cigarette smoke exposed mice; type: cell-based; details: BAL cells from CS exposed mice
Description: The effect of PCCR-1 was evaluated ex vivo using BALf cells from an acute cigarette smoke induced animal model. Animals were exposed to cigarette smoke for 7 days and BALf cells were collected and treated with different doses of PCCR-1 under various stimulatory conditions. […] Stimulation by LPS may represent the inflammatory state during a COPD exacerbation, supporting a potential benefit of PCCR-1 in this disease state.
C57BL/6 mice were exposed to as per above mentioned protocol. On 7th day, animals were sacrificed and a tracheal cannula was inserted. Three times via the trachea, 1 mL of plain RPMI medium was instilled and recovered by gentle manual aspiration. The recovered BALf was centrifuged, the cell pellet washed twice and finally re-suspended in 5% FBS- RPMI. Isolated BAL cells were pre-incubated with different concentration of PCCR-1 for 60 min, followed by stimulating with 1 µg/ml soluble mouse anti-CD3 and 3 µg/ml mouse anti-CD28 mAbs and/or 100 ng/ml of LPS and incubated for 24-48 h at 37 °C. The supernatant was used for estimating IL-17 by ELISA.

NK3 = tested on: T1, NK3; experiment: Cerep panel, NK3
T1 construct: Eurofins Cerep
Excerpt: (§1) Based on the homology of the ligand binding domains, 3 different isoforms of ROR (hRORα, hRORβ and hRORγ) are reported. Small variations in the LBD regions possibly lead to differences in competitive binding between the nuclear receptors of the ROR isoforms (Fig. 1b). Similar to the assessment of RORγ binding assay, TR-FRET binding assays were also used to assess the affinity of PCCR-1 for other ROR isoforms. […] This was reconfirmed in cellular functional assays for the selected isoforms and nuclear receptors using Gal4 DBD with luciferase reporter system from Indigo (PA, USA). […] In addition, both cellular agonist and antagonist effects as well as for enzyme activity were evaluated with a known reference compound for each target, using a radiolabeled method (Eurofins Cerep, France, Table 1).

[2] = tested on: IL-17A release in human PBMC; experiment: IL-17A release, human PBMC under Th17 polarization conditions; type: cell-based; details: human PBMC under Th17 polarization condition, n = 2; read-out: hIL-17 (IL-17A) IC50
Description: An increase in the levels of Th17 dependent cytokine in the peripheral blood of COPD patients as compared to the Th1 and Th2 dependent cytokines has been well documented in a subset of COPD patients. A comparative study was performed under TCR activating conditions to evaluate the potencies of PCCR-1 for inhibition across Th1, Th2 and Th17 dependent cytokines using hPBMCs.
Human whole blood from healthy subjects were procured from Clinical Research Unit, Sanpada. Clinical Research Center Glenmark (Plot No. D, 508, Turbhe, TTC Industrial Area, MIDC, Sanpada, Navi Mumbai, Maharashtra 400705, India). PBMCs were isolated using heparinized blood with Ficoll Histopaque. Briefly, the cells were seeded in 96-well plate pre-coated with human anti-CD3 mAb (10 µg/mL), post 30 min of compound treatment cells were stimulated with human anti-CD28 mAb (2 µg/mL). After 72 h of culture, the supernatant was collected for Th1/Th2 cytokines; IFN-γ, IL-2, IL-4 and IL-10 and measured by ELISA. For Th17 polarization assay, the following cytokine cocktail was used: IL-1β (10 ng/ml), IL-23(10 ng/ml), IL-6 (50 ng/ml), TGF-β1 (3 ng/ml), IL-2 (20U/ml) and supernatants were used for measuring IL-17 and IL-22 by ELISA.

[3] = tested on: Cerep Panel of receptors, ion channels and enzymes; experiment: Cerep panel of receptors (binding/functional assays); parameters: key: NSE No significant effect; V wk very weak (very low-level agonist activity seen with mPPARγ); details: at 10 µM, except targets listed in the next line
Excerpt: as §1

[4] = tested on: IL-17 release from COPD patient whole blood; experiment: IL-17 release, whole blood from COPD patients; type: cell-based; details: Homo sapiens; TCR stimulated, n = 5; read-out: IL-17 IC50, COPD patient's sample: WB
Description: Whole blood and BAL samples from COPD patients were obtained from Multispecialty hospital, Mumbai post approval from ethics committee and informed consent of patients. 30–40 mL Broncho alveolar lavage (BALf) was collected per patient and stored in ice. Blood was collected in heparin vaccutainer as per approved protocol. Both the samples were processed within 2 h of collection. BALF was passed through 100-µm and 40-µm cell strainer to remove debris and mucus, the samples were centrifuged and the cells were re-suspended in RPMI 1640 complete medium. PBMCs from blood were isolated using Histopaque-1077 by density gradient centrifugation. Isolated BAL cells and PBMCs were seeded in 96 well coated with 10 µg/ml anti-CD3 and 2 µg/ml anti-CD2. Cells were further treated with different concentration of test compound for 60 min followed by stimulation with 20 µg/ml anti-CD28 and incubated for 48–72 h. The supernatant was used for estimating IL-17 by ELISA.

[5] = Drug concentrations on day-8 in CS-model mice after 7-day intranasal treatment; type: in vivo; details: C57BL/6, mouse, other: intranasal; for concentration at 1 h: CS exposed mice
Description: Additionally, after 7-day intranasal treatment with PCCR-1 in the CS-model in mice as described above, blood, BAL fluid and lung tissues were collected on day-8 approximately 1 h after the last treatment dose for estimating the drug concentrations for PK-PD correlation.

human RORγ = tested on: T2, human RORγ; experiment: Dissociation assay, jump dilution method (TR-FRET), human; type: binding
T2 construct: RORC-LBD region 229-497aa; made in house; host or cells: Escherichia coli BL21-DE3
Description: To understand the inverse agonist behavior at the molecular level, interaction with the nuclear receptor RORγ was analyzed in binding assays by estimating its dissociation constant (Koff) and half-life (t1/2). The binding of a ligand stabilizes the conformation of the LBD while binding of a cofactor modifies receptor activity. Binding reversibility was evaluated by adding an excess of competing ligand in the FRET assay and evaluating the displacement of the tracer with inhibitor. Binding of the PCCR-1 with the LBD caused reduction in FRET on antibody addition forming a GST (Glutathione S-transferases) tagged RORγ-antibody complex. The dissociation assay was performed using the jump dilution method with PCCR-1 at a concentration showing maximum binding potency or IC90. The dissociation was tested on addition of an excess of a competitive ligand, the tracer.

SMILES: CCn1c(C(C)(C)Oc2ccc(F)cc2F)nc2cc(NC(=O)Cc3ccc(S(=O)(=O)CC)cc3)ccc21 [PCCR-1]
- IC50 ([1]; LPS induced, read-out: IL-17 IC50, Mouse BAL cells: LPS): 802 nM
- IC50 ([1]; anti-CD3 + anti-CD28 induced, read-out: IL-17 IC50, Mouse BAL cells: CD3+CD28): 903 nM
- IC50 ([1]; basal, read-out: IL-17 IC50, Mouse BAL cells: Basal): 873 nM
- % inhibition at 10 µM NK3 (NK3): 56%
- IC50 [2]: 66.5 nM
- Cerep Panel of receptors (binding/functional assays) [3]: NSE at 10 µM except#
- IC50 [4]: 5050 nM
- concentration at 1 h ([5]; BAL fluid, day-8, intranasal 1 µg/animal, read-out: Total concentration BAL fluid): 25.7 nM
- concentration at 1 h ([5]; BAL fluid, day-8, intranasal 10 µg/animal, read-out: Total concentration BAL fluid): 160 nM
- concentration at 1 h ([5]; BAL fluid, day-8, intranasal 30 µg/animal, read-out: Total concentration BAL fluid): 390 nM
- concentration at 1 h ([5]; BAL fluid, day-8, intranasal 50 µg/animal, read-out: Total concentration BAL fluid): 779 nM
- concentration at 1 h ([5]; BAL fluid, day-8, intranasal 100 µg/animal, read-out: Total concentration BAL fluid): 1320 nM
- concentration at 1 h ([5]; lung, day-8, intranasal 1 µg/animal, read-out: Total concentration Lung): 5480 nM
- concentration at 1 h ([5]; lung, day-8, intranasal 10 µg/animal, read-out: Total concentration Lung): 53600 nM
- concentration at 1 h ([5]; lung, day-8, intranasal 30 µg/animal, read-out: Total concentration Lung): 171000 nM
- concentration at 1 h ([5]; lung, day-8, intranasal 50 µg/animal, read-out: Total concentration Lung): 379000 nM
- concentration at 1 h ([5]; lung, day-8, intranasal 100 µg/animal, read-out: Total concentration Lung): 608000 nM
- Kp at 1 h ([5]; lung/plasma, CS-model mice, 7-day intranasal treatment, all tested doses (1 to 100 µg), read-out: concentration in lung as compared to the plasma): > 1000
- concentration at 1 h ([5]; plasma, day-8, intranasal 1 µg/animal, read-out: Total concentration Plasma): < 1.85 nM
- concentration at 1 h ([5]; plasma, day-8, intranasal 10 µg/animal, read-out: Total concentration Plasma): < 1.85 nM
- concentration at 1 h ([5]; plasma, day-8, intranasal 30 µg/animal, read-out: Total concentration Plasma): 20.6 nM
- concentration at 1 h ([5]; plasma, day-8, intranasal 50 µg/animal, read-out: Total concentration Plasma): 33.2 nM
- concentration at 1 h ([5]; plasma, day-8, intranasal 100 µg/animal, read-out: Total concentration Plasma): 84.7 nM
- dissociation (human RORγ; after 290 min (~ 5 h)): 50%
- t1/2 (target residence time) (human RORγ; human RORγ, jump dilution, PCCR-1 at IC90): 4.84 h
- absolute dissociation (human RORγ; human, till 3 h of measurement): 50%
